Experimental data from US5004735A, “Pharmaceutical compositions for the inhibition of tumor metastasis” (Nisshin Flour Milling Co., Ltd., priority 1988, dated 1991).

Legend:
B16-F10 melanoma [1] = assay: Inhibition of tumor metastasis to lung by intravenous oily emulsions (Example 8); type: in vivo, male C57BL/6 mice; settings: oily emulsion i.v., 9 times every three days
Procedure: Male C57BL/6 mice (6 weeks old) were given 4×10^5 B16-F10 melanoma cells in 0.05 ml of serum-free RPMI 1640 medium in the foot pad of the left hind leg. […] The tumor-bearing legs were cut on day 27 and the mice were sacrificed on day 41. The number of metastatic nodules formed in the lung was counted for each mouse. 10 Animals were used per each group. % Inhibition of tumor metastasis to lung was calculated on the basis of the following formula.
% Inhibition of tumor metastasis to lung=(1-M/M0)×100

B16-F10 melanoma [2] = assay: Inhibition of lung metastasis of B16-F10 melanoma in mice, intraperitoneal olive oil solution (Example 3); type: in vivo, male C57BL/6 mice
Procedure: (§1) Experimental animal: male C57BL/6 mice (6 weeks old)
(§2) Tumor cell line: B16-F10 melanoma
Compounds B, D, E and F were tested for the inhibitory effect on tumor metastasis using the same experimental animal and tumor cell line as in Example 1. Test method: Mice were given 4×10^5 B16-F10 melanoma cells in 0.05 ml of serum-free RPMI 1640 medium in the foot pad of the left hind leg. A solution of Compounds B, D, E or F (0.1 or 0.2 mg) in 0.2 ml of olive oil was administered intraperitoneally every other day from day 1 to day 27 after inoculation of the melanoma cells. During this period, the size of the inoculated tumors was observed macroscopically. On day 28, the tumor-bearing legs were cut from the mice and on day 42 the mice were sacrificed. The number of metastatic nodules formed on the lung surface was counted for each mouse. 10 Animals were used per each group except for control group wherein 20 animals were used.

B16-F10 melanoma cells = assay: L-PHA-sensitivity of cultured tumor cells (Example 4); type: cell-based; settings: Mus musculus, 10 μl of 50 μg/ml test compound in DMSO added on day 1 to 2 ml medium, L-PHA 50 μl of 50 μg/ml on day 2, count day 4, control 42.0, read-out: Growth inhibition by L-PHA
Procedure: Tumor cell culture: B16-F10 melanoma cells were incubated in RPMI 1640 medium containing 10% fetal bovine serum and antibiotics at 37° C.
Test method: B16-F10 cells (5×10^4) in 2 ml of the medium were seeded onto a plastic dish and incubation was started. On day 1, 10 μl of dimethylsulfoxide (control group) or a test compound suspended in 10 μl of dimethylsulfoxide at a concentration of 50 μg/ml (test group) was added. On day 2, 50 μl each of water was added to a half of each of the control group and the test group, and 50 μl of 50 μg/ml L-PHA solution in water was added to a remaining half. On day 4, the number of cells was counted in L-PHA-treated and untreated groups and % growth inhibition by L-PHA was calculated according to the following formula:
% Growth Inhibition=(1-N/N0)×100
in which N denotes a number of cells in the presence of L-PHA and N0 denotes a number of cells in the absence thereof.

B16-F10 melanoma [3] = assay: Inhibition of lung metastasis of B16-F10 melanoma in mice, intraperitoneal suspension (Examples 1 and 2); type: in vivo, male C57BL/6 mice; settings: for Number of metastatic nodules mean ± standard error / Inhibition of metastasis: day 1 to 27, day 42; for Number of metastatic nodules mean ± standard error: lung surface; for Inhibition of metastasis: lung
Procedure: as §1, §2
Test method: Mice were given 4×10^5 B16-F10 melanoma cells in 0.05 ml of serum-free RPMI 1640 medium in the foot pad of the left hind leg. […] During this period, the size of the inoculated tumor was observed macroscopically. On day 28, tumor-bearing legs were cut from the mice and on day 42 the mice were sacrificed. The number of metastatic nodules formed on the lung surface was counted for each mouse. 10 Animals were used per each group
Compounds G and H were tested for the inhibitory effect on tumor metastasis.

SMILES	Inhibition of tumor metastasis to lung (B16-F10 melanoma [1]; 0.8 mg/kg)	Growth of the inoculated tumors (in words) (B16-F10 melanoma [2]; 10 mg/Kg i.p., compared with Control)	Number of metastatic nodules mean ± standard error (B16-F10 melanoma [2]; 10 mg/kg i.p. in olive oil every other day, day 1 to 27, lung surface, day 42)	Inhibition of metastasis (B16-F10 melanoma [2]; 10 mg/kg i.p. in olive oil every other day, day 1 to 27, lung, day 42)	inhibition at 50 µg/mL (stock) (B16-F10 melanoma cells)	Inhibition of tumor metastasis to lung (B16-F10 melanoma [1]; 0.3 mg/kg)	Inhibition of tumor metastasis to lung (B16-F10 melanoma [1]; 2.0 mg/kg)	Number of metastatic nodules mean ± standard error (B16-F10 melanoma [3]; 5 mg/kg i.p. every other day)	Inhibition of metastasis (B16-F10 melanoma [3]; 5 mg/kg i.p. every other day)	Number of metastatic nodules mean ± standard error (B16-F10 melanoma [3]; 10 mg/kg i.p. every other day)	Inhibition of metastasis (B16-F10 melanoma [3]; 10 mg/kg i.p. every other day)	Inhibitory effect on tumor metastasis (in words) (B16-F10 melanoma [3]; Example 2, i.p. suspension, same method as Example 1)
CC(C)=CCC/C(C)=C/CC/C(C)=C/CC/C(C)=C/CC/C(C)=C/CC/C(C)=C/CC/C(C)=C/CC/C(C)=C/CC/C(C)=C/CCC(C)CCO (centres unmarked) [Compound B]	54%	about the same as that of Control	11.7 ± 6.2	63%	36.6%	–	–	–	–	–	–	–
CC(C)=CCC/C(C)=C/CC/C(C)=C/CC/C(C)=C/CC/C(C)=C/CC/C(C)=C/CC/C(C)=C/CC/C(C)=C/CC/C(C)=C/CCC(C)CCOP(=O)(O)O (centres unmarked) [Compound C]	78%	–	–	–	32.7%	79%	85%	1.2 ± 0.8	94%	0	100%	–
CC(C)=CCC/C(C)=C/CC/C(C)=C/CC/C(C)=C/CC/C(C)=C/CC/C(C)=C/CC/C(C)=C/CC/C(C)=C/CC/C(C)=C/CCC(C)CCOP(=O)(O)O (centres unmarked) [Compound G]	–	–	–	–	–	–	–	–	–	–	–	essentially the same as that of Compound C
